Test results from article PMC10914316 (Biochemistry, 2023).
Like-named read-outs stand apart in the source and are kept apart here.

Columns and labels:
ArnA_DH [1] = molecular target: T1, ArnA_DH (Escherichia coli, UniProt P77398); conditions: for Tm (melting temperature of ArnA_DH with ligand): no ligand Tm = 318.4 ± 0.03 K
ArnA_DH_N492A [2] = molecular target: T2, ArnA_DH_N492A (Escherichia coli, UniProt P77398, N492A); experiment: NADH binding; format: biochemical; conditions: concentrations as high as 10 mM
T2 sequence (P77398 314-660 N492A): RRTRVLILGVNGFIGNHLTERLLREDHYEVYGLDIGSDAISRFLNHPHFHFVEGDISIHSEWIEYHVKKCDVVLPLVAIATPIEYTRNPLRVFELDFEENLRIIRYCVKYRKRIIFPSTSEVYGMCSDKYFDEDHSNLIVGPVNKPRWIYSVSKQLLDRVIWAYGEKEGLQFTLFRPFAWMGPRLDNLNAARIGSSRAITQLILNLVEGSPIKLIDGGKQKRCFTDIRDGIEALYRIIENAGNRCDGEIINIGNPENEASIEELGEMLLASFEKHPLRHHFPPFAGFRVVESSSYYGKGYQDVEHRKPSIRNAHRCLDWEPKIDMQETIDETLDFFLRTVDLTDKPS

ArnA_DH_N492A [3] = molecular target: T2, ArnA_DH_N492A; experiment: Thermal stability shift assay for ligand binding to N492A mutant
ArnA_DH [4] = molecular target: T1, ArnA_DH; experiment: biochemical

Row | Compound | ligand binding by thermal stability shift assay (ArnA_DH [1]; 1 mM and 10 mM ligand) | Tm (melting temperature of ArnA_DH with ligand) (ArnA_DH [1]; 1 mM ligand) | Tm (melting temperature of ArnA_DH with ligand) (ArnA_DH [1]; 10 mM ligand) | UDP-GlcA-induced conformational change of ArnA_DH_N492A (intrinsic NADH fluorescence) (ArnA_DH_N492A [2]) | Kd (ArnA_DH_N492A [3]) | Kd (ArnA_DH [4])
1 | O=C(O)[C@H]1O[C@H](OP(=O)(O)O)[C@H](O)[C@@H](O)[C@@H]1O [GlcA-1P, glucuronic acid-1-phosphate] | undetectable | 318.9 ± 0.02 K | 318.4 ± 0.03 K | – | – | –
2 | O=C(O)[C@H]1O[C@H](OP(=O)(O)OP(=O)(O)OC[C@H]2O[C@@H](n3ccc(=O)[nH]c3=O)[C@H](O)[C@@H]2O)[C@H](O)[C@@H](O)[C@@H]1O [UDP-GlcA, UDP-glucuronic acid] | – | – | – | little change in the intrinsic NADH fluorescence | 36 ± 7 µM | 22 ± 5 µM
3 | O=c1ccn([C@@H]2O[C@H](COP(=O)(O)OP(=O)(O)O[C@H]3OC[C@@H](O)[C@H](O)[C@H]3O)[C@@H](O)[C@H]2O)c(=O)[nH]1 [UDP-xylose] | – | 320.0 ± 0.03 K | – | – | – | 633 ± 116 µM
4 | O=c1ccn([C@@H]2O[C@H](COP(=O)(O)O)[C@@H](O)[C@H]2O)c(=O)[nH]1 [UMP, uridine monophosphate] | – | 320.6 ± 0.02 K | – | – | – | 594 ± 135 µM
